Article PMC9945408 (Food Chemistry: X, 2023)

Key:
[1] = target: T1, indoleamine 2,3-dioxygenase 1 (IDO1) (Homo sapiens, UniProt P14902); experiment: % inhibition at […], capillary electrophoresis enzyme assay; format: biochemical
[2] = target: T1, indoleamine 2,3-dioxygenase 1 (IDO1); experiment: capillary electrophoresis enzyme assay; format: biochemical

T1 sequence (P14902 whole entry): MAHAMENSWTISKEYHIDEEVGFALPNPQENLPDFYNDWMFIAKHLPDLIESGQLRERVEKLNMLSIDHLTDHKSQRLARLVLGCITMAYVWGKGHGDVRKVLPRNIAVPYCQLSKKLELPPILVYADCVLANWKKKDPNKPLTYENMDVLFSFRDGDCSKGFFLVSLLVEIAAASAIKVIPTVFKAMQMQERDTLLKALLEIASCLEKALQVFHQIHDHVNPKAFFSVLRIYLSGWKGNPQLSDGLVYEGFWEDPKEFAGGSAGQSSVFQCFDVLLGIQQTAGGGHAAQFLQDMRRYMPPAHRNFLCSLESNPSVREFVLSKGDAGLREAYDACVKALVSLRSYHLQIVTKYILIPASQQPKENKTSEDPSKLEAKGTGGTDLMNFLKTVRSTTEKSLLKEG

Compound: O=C(/C=C/c1ccc(O)c(O)c1)O[C@@H]1C[C@@](O)(C(=O)O)C[C@@H](O)[C@@H]1O [compound 1, Neochlorogenic acid]
- inhibition at 100 µM [1]: 10.9%

Compound: O=C(/C=C/c1ccc(O)c(O)c1)O[C@@H]1C[C@](O)(C(=O)O)C[C@@H](O)[C@H]1O [compound 2, Chlorogenic acid]
- IC50 [2]: 308 µM

Compound: O=C(/C=C/c1ccc(O)c(O)c1)O[C@H]1[C@H](O)C[C@](O)(C(=O)O)C[C@H]1O [compound 3, Cryptochlorogenic acid]
- inhibition at 100 µM [1]: 11.8%

Compound: COc1cc(/C=C/C(=O)O[C@@H]2C[C@@](O)(C(=O)O)C[C@@H](O)[C@@H]2O)ccc1O [compound 4, 3-O-Feruloylquinic acid]
- inhibition at 100 µM [1]: 16.4%

Compound: COc1cc(/C=C/C(=O)O[C@@H]2C[C@](O)(C(=O)O)C[C@@H](O)[C@H]2O)ccc1O [compound 6, 5-O-Feruloylquinic acid]
- inhibition at 100 µM [1]: 12.7%

Compound: COc1cc(/C=C/C(=O)O)ccc1O [compound 7, Ferulic acid]
- IC50 [2]: 114 µM

Compound: O=C(/C=C/c1ccc(O)c(O)c1)O[C@H]1[C@H](O)C[C@](O)(C(=O)O)C[C@H]1OC(=O)/C=C/c1ccc(O)c(O)c1 [compound 8, Isochlorogenic acid B]
- inhibition at 100 µM [1]: 19.1%

Compound: O=C(/C=C/c1ccc(O)c(O)c1)O[C@@H]1[C@H](O)C[C@@](O)(C(=O)O)C[C@H]1OC(=O)/C=C/c1ccc(O)c(O)c1 [compound 10, Isochlorogenic acid C]
- inhibition at 100 µM [1]: 10.9%
